Assay results as given in PubChem BioAssay AID220 (DTP/NCI, 2004).
Several values for one entry are separate records, joined by “and”; a condition that tells them apart may be missing. Equal entries are not always repeated. Inconclusive results are not listed.

Test system: CD8F1 mice, subcutaneous mammary adenocarcinoma, T/C%
Experiment: NCI In Vivo Anticancer Drug Screen. Data for tumor model Mammary Adenocarcinoma CD8F1 (subcutaneous) in CD8F1
Details: higher = larger tumour
Method in brief: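 Mice carrying transplanted tumors received test compound, and survival or tumor size was recorded. Each value is the treated-group measurement divided by the corresponding measurement in vehicle-dosed controls.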

[1] = endpoint: median tumor weight (est.), dose: 3.12 mg/kg/injection, schedule: Q07DX005 (ip), vehicle: saline with Tween-80
[2] = endpoint: median tumor weight (est.), dose: 6.25 mg/kg/injection, schedule: Q07DX005 (ip), vehicle: saline with Tween-80
[3] = endpoint: median tumor weight (est.), dose: 12.5 mg/kg/injection, schedule: Q07DX005 (ip), vehicle: saline with Tween-80
[4] = endpoint: median tumor weight (est.), dose: 50.0 mg/kg/injection, schedule: Q07DX005 (ip), vehicle: saline with Tween-80

## O=c1cc(CCl)[nH]nc1CCl
[1]
  T/C: 86 % of control and 88 % of control
[2]
  T/C: 96 % of control and 103 % of control
[3]
  T/C: 92 % of control and 106 % of control
[4]
  T/C: 55 % of control

## S=C1CCCCN1
endpoint: median tumor weight change, dose: 37.5 mg/kg/injection, schedule: Q01DX001 (ip), vehicle: distilled water + Tween-80 + alcohol
  T/C: 73 % of control
endpoint: median tumor weight change, dose: 75.0 mg/kg/injection, schedule: Q01DX001 (ip), vehicle: distilled water + Tween-80 + alcohol
  T/C: 111 % of control
endpoint: median tumor weight change, dose: 150.0 mg/kg/injection, schedule: Q01DX001 (ip), vehicle: distilled water + Tween-80 + alcohol
  T/C: 86 % of control

## CCCCC(C)(C(=O)OCC)C(=O)OCC
endpoint: median tumor weight (est.), dose: 12.5 mg/kg/injection, schedule: Q07DX005 (ip), vehicle: Klucel (hydroxypropylcellulose) (HPC)
  T/C: 94 % of control
endpoint: median tumor weight (est.), dose: 200.0 mg/kg/injection, schedule: Q07DX005 (ip), vehicle: Klucel (hydroxypropylcellulose) (HPC)
  T/C: 110 % of control
endpoint: median tumor weight (est.), dose: 400.0 mg/kg/injection, schedule: Q07DX005 (ip), vehicle: Klucel (hydroxypropylcellulose) (HPC)
  T/C: 212 % of control

## CC(=O)O[C@@H]1[C@@H](O)C2=C3[C@]4(C)[C@@H]1C(C)(C)C(=O)C[C@@H]4[C@]3(O)[C@H](OC(C)=O)[C@@]1(C[C@@H]1C)C2=O
endpoint: median tumor weight (est.), dose: 6.25 mg/kg/injection, schedule: Q07DX005 (ip), vehicle: distilled water + Tween-80
  T/C: 98 % of control
[2]
  T/C: 112 % of control
endpoint: median tumor weight (est.), dose: 12.5 mg/kg/injection, schedule: Q07DX005 (ip), vehicle: distilled water + Tween-80
  T/C: 151 % of control
[3]
  T/C: 117 % of control
endpoint: median tumor weight (est.), dose: 25.0 mg/kg/injection, schedule: Q07DX005 (ip), vehicle: distilled water + Tween-80
  T/C: 87 % of control
endpoint: median tumor weight (est.), dose: 50.0 mg/kg/injection, schedule: Q07DX005 (ip), vehicle: distilled water + Tween-80
  T/C: 94 % of control
[4]
  T/C: 72 % of control

## O=c1cnn(C2OC(CO)C(O)C2O)c(=O)[nH]1 (configuration not stated)
endpoint: mean tumor weight, dose: 125.0 mg/kg/injection, schedule: Q07DX004 (ip), vehicle: saline
  T/C: 67 % of control
endpoint: mean tumor weight, dose: 250.0 mg/kg/injection, schedule: Q07DX004 (ip), vehicle: saline
  T/C: 49 % of control
endpoint: median tumor weight (est.), dose: 100.0 mg/kg/injection, schedule: Q07DX005 (ip), vehicle: saline with Tween-80
  T/C: 63 % of control
endpoint: median tumor weight (est.), dose: 100.0 mg/kg/injection, schedule: Q07DX005 (ip), vehicle: saline
  T/C: 17 % of control
endpoint: median tumor weight (est.), dose: 200.0 mg/kg/injection, schedule: Q07DX005 (ip), vehicle: saline with Tween-80
  T/C: 95 % of control
endpoint: median tumor weight (est.), dose: 200.0 mg/kg/injection, schedule: Q07DX005 (ip), vehicle: saline
  T/C: 63 % of control
endpoint: median tumor weight (est.), dose: 400.0 mg/kg/injection, schedule: Q07DX005 (ip), vehicle: saline with Tween-80
  T/C: 53 % of control
endpoint: median tumor weight (est.), dose: 400.0 mg/kg/injection, schedule: Q07DX005 (ip), vehicle: saline
  T/C: 41 % of control
endpoint: median tumor weight (est.), dose: 800.0 mg/kg/injection, schedule: Q07DX005 (ip), vehicle: saline with Tween-80
  T/C: 66 % of control
endpoint: median tumor weight (est.), dose: 800.0 mg/kg/injection, schedule: Q07DX005 (ip), vehicle: saline
  T/C: 64 % of control
endpoint: median tumor weight (est.), dose: 1600.0 mg/kg/injection, schedule: Q07DX005 (ip), vehicle: saline with Tween-80
  T/C: 68 % of control
endpoint: median tumor weight (est.), dose: 3200.0 mg/kg/injection, schedule: Q07DX005 (ip), vehicle: saline with Tween-80
  T/C: 54 % of control
endpoint: median tumor weight (est.), dose: 3200.0 mg/kg/injection, schedule: Q07DX005 (ip), vehicle: saline
  T/C: 76 % of control

## Cc1ccc(S(=O)(=O)NC(=O)C2C(=O)CC3(CCCCC3)CC2=O)cc1
endpoint: median tumor weight change, dose: 31.25 mg/kg/injection, schedule: Q01DX001 (ip), vehicle: Klucel (hydroxypropylcellulose) (HPC)
  T/C: 93 % of control
endpoint: median tumor weight change, dose: 62.5 mg/kg/injection, schedule: Q01DX001 (ip), vehicle: Klucel (hydroxypropylcellulose) (HPC)
  T/C: 101 % of control
endpoint: median tumor weight change, dose: 125.0 mg/kg/injection, schedule: Q01DX001 (ip), vehicle: Klucel (hydroxypropylcellulose) (HPC)
  T/C: 122 % of control

## Cc1c2ccc3ccccc3c2c[n+]2ccccc12
endpoint: median tumor weight (est.), dose: 2.5 mg/kg/injection, schedule: Q07DX005 (ip), vehicle: Klucel (hydroxypropylcellulose) (HPC)
  T/C: 84 % of control
endpoint: median tumor weight (est.), dose: 5.0 mg/kg/injection, schedule: Q07DX005 (ip), vehicle: Klucel (hydroxypropylcellulose) (HPC)
  T/C: 86 % of control
endpoint: median tumor weight (est.), dose: 10.0 mg/kg/injection, schedule: Q07DX005 (ip), vehicle: Klucel (hydroxypropylcellulose) (HPC)
  T/C: 83 % of control
endpoint: median tumor weight (est.), dose: 20.0 mg/kg/injection, schedule: Q07DX005 (ip), vehicle: Klucel (hydroxypropylcellulose) (HPC)
  T/C: 57 % of control

## CN=C(N)N/N=C(\c1ccccc1)c1ccc(Br)cc1
endpoint: median tumor weight change, dose: 15.6 mg/kg/injection, schedule: Q01DX001 (ip), vehicle: saline with Tween-80
  T/C: 71 % of control
endpoint: median tumor weight change, dose: 31.25 mg/kg/injection, schedule: Q01DX001 (ip), vehicle: saline with Tween-80
  T/C: 56 % of control
endpoint: median tumor weight change, dose: 62.5 mg/kg/injection, schedule: Q01DX001 (ip), vehicle: saline with Tween-80
  T/C: 55 % of control

## CNC=O
endpoint: median tumor weight change, dose: 25.0 mg/kg/injection, schedule: Q01DX001 (ip), vehicle: saline
  T/C: 54 % of control
endpoint: median tumor weight change, dose: 50.0 mg/kg/injection, schedule: Q01DX001 (ip), vehicle: saline
  T/C: 75 % of control
endpoint: median tumor weight change, dose: 100.0 mg/kg/injection, schedule: Q01DX001 (ip), vehicle: saline
  T/C: 59 % of control
endpoint: median tumor weight change, dose: 200.0 mg/kg/injection, schedule: Q01DX001 (ip), vehicle: saline sonified
  T/C: 48 % of control
endpoint: median tumor weight change, dose: 200.0 mg/kg/injection, schedule: Q01DX001 (ip), vehicle: saline
  T/C: 72 % of control
endpoint: median tumor weight change, dose: 800.0 mg/kg/injection, schedule: Q01DX001 (ip), vehicle: saline
  T/C: 154 % of control
endpoint: median tumor weight change, dose: 1600.0 mg/kg/injection, schedule: Q01DX001 (ip), vehicle: saline
  T/C: 71 % of control
endpoint: median tumor weight change, dose: 3200.0 mg/kg/injection, schedule: Q01DX001 (ip), vehicle: saline
  T/C: 108 % of control

## Cc1c2cc(Cl)c3ccccc3c2c[n+]2ccccc12
[3]
  T/C: 52 % of control
endpoint: median tumor weight (est.), dose: 25.0 mg/kg/injection, schedule: Q07DX005 (ip), vehicle: saline with Tween-80
  T/C: 52 % of control and 57 % of control
[4]
  T/C: 61 % of control and 65 % of control

## O=C1NC2(CCCCC2)C(=O)N1CCN(CCCl)CCCl
endpoint: mean tumor weight, dose: 3.0 mg/kg/injection, schedule: Q07DX005 (ip), vehicle: Klucel (hydroxypropylcellulose) (HPC)
  T/C: 81 % of control
endpoint: mean tumor weight, dose: 6.0 mg/kg/injection, schedule: Q07DX005 (ip), vehicle: Klucel (hydroxypropylcellulose) (HPC)
  T/C: 82 % of control
endpoint: mean tumor weight, dose: 12.0 mg/kg/injection, schedule: Q07DX005 (ip), vehicle: Klucel (hydroxypropylcellulose) (HPC)
  T/C: 42 % of control
endpoint: mean tumor weight, dose: 24.0 mg/kg/injection, schedule: Q07DX005 (ip), vehicle: Klucel (hydroxypropylcellulose) (HPC)
  T/C: 26 % of control
endpoint: median tumor weight (est.), dose: 3.0 mg/kg/injection, schedule: Q07DX005 (ip), vehicle: saline
  T/C: 68 % of control
endpoint: median tumor weight (est.), dose: 6.0 mg/kg/injection, schedule: Q07DX005 (ip), vehicle: saline
  T/C: 75 % of control
endpoint: median tumor weight (est.), dose: 12.0 mg/kg/injection, schedule: Q07DX005 (ip), vehicle: saline
  T/C: 45 % of control
endpoint: median tumor weight (est.), dose: 24.0 mg/kg/injection, schedule: Q07DX005 (ip), vehicle: saline
  T/C: 6 % of control
endpoint: median tumor weight change, dose: 9.0 mg/kg/injection, schedule: Q01DX001 (ip), vehicle: saline with Tween-80
  T/C: 60 % of control
endpoint: median tumor weight change, dose: 9.38 mg/kg/injection, schedule: Q01DX001 (ip), vehicle: saline with Tween-80
  T/C: 75 % of control
endpoint: median tumor weight change, dose: 18.0 mg/kg/injection, schedule: Q01DX001 (ip), vehicle: saline with Tween-80
  T/C: 62 % of control
endpoint: median tumor weight change, dose: 37.0 mg/kg/injection, schedule: Q01DX001 (ip), vehicle: saline with Tween-80
  T/C: 32 % of control
endpoint: median tumor weight change, dose: 75.0 mg/kg/injection, schedule: Q01DX001 (ip), vehicle: saline with Tween-80
  T/C: 19 % of control

## Cc1c(CNc2ccc(C(=O)NC(CC(=O)O)C(=O)O)cc2)ccc2nc(N)nc(N)c12 (configuration not stated)
[1]
  T/C: 28 % of control
endpoint: median tumor weight (est.), dose: 3.13 mg/kg/injection, schedule: Q07DX005 (ip), vehicle: saline with Tween-80
  T/C: 26 % of control
[2]
  T/C: 29 % of control

## CCCCCn1c(C)cc(/C=C\c2ccc3cc(C)ccc3[n+]2C)c1C
endpoint: median tumor weight (est.), dose: 39.0 micrograms/kg/injection, schedule: Q07DX005 (ip), vehicle: Klucel (hydroxypropylcellulose) (HPC)
  T/C: 87 % of control
endpoint: median tumor weight (est.), dose: 78.0 micrograms/kg/injection, schedule: Q07DX005 (ip), vehicle: Klucel (hydroxypropylcellulose) (HPC)
  T/C: 72 % of control
endpoint: median tumor weight (est.), dose: 156.0 micrograms/kg/injection, schedule: Q07DX005 (ip), vehicle: Klucel (hydroxypropylcellulose) (HPC)
  T/C: 76 % of control
endpoint: median tumor weight (est.), dose: 312.0 micrograms/kg/injection, schedule: Q07DX005 (ip), vehicle: Klucel (hydroxypropylcellulose) (HPC)
  T/C: 111 % of control
endpoint: median tumor weight (est.), dose: 625.0 micrograms/kg/injection, schedule: Q07DX005 (ip), vehicle: Klucel (hydroxypropylcellulose) (HPC)
  T/C: 107 % of control
